“Also recorded” adds a separate entry of the source.
Experiments:
Hdac1,2 = assay: in vitro enzyme assays, IC50 determination (FIG. 17A); format: biochemical
Description: (A). For IC50 determination, recombinant HDAC enzymes were treated with HDAC1,2 or HDAC3 inhibitors in in vitro HDAC assays. (B). Western blots for H3K23ac using extracts from Pre-B-ALL SupB15 cells treated with increasing dose of HDAC1,2 inhibitor (ACY1035). (C). Hdac1^FI/FI, 2^FI/FI cells were infected with Ad-Cre virus to delete HDAC1 and HDAC2 (HDAC1,2 null) or uninfected (WT). (D). Hdac3^FI/FI cells were either uninfected (WT) or infected with Ad-Cre virus to delete Hdac3. HDAC3-null cells were treated with DMSO or the HDAC1,2 selective inhibitor.
We have determined 2 μM (FIG. 17B) as the minimum dose for the ACY compounds, respectively, that when added to cells increased H3K23ac (a mark targeted by Hdac1,2 but not Hdac3).

Karpas-422 cells = assay: propidium-iodide / BrdU-PI cell cycle analysis; format: cell-based, human
Description: (§1) (B): Quantitation of the cell cycle data in (A), compiled from three independent analyses. The graphs plotted the average percentage of cells in each phase of the cell cycle. […] (C): FACS analysis following BrdU-PI staining of Karpas-422 and SUDHL4 cells was performed following a 48 h or 72 h treatment with ACY-957.
Cell cycle analysis of propidium-iodide stained cells was performed with fixed cells. […] (C): FACS analysis following BrdU-PI staining of Karpas-422 and SUDHL4 cells was performed following a treatment with 2 μM ACY-957, 50 nM doxorubicin or both for 48 h.
(§2) (B): Quantitation of the cell cycle analysis performed in (A). Data from three independent cell cycle analyses were compiled and average percentage cells with standard errors were shown in this panel.
(§3) Propidium-iodide Cell Cycle Analysis.
(§4) Since these DLBCL cells expressed a hyperactive form of EZH2, pharmacological inhibition of EZH2 activity was considered a therapeutic strategy. […] GSK126 was a S-adenosyl-methionine-competitive inhibitor of EZH2 methyltransferase activity, and DZNep was a S-adenosylhomocysteine hydrolase inhibitor that disrupted the components of the PRC2 complex, thereby causing reduced chromatin-associated EZH2 levels.
To test this possibility, cell cycle analysis following treatment of Karpas-422 with ACY-957, doxorubicin, or ACY-957 in combination with doxorubicin was performed.

SUDHL4 cells = assay: propidium-iodide / BrdU-PI cell cycle analysis; format: cell-based, human
Description: as §1, §2, §3, §4

[1] = 24 h, 2 μM ACY-957, 0.5 μM DZNEP, 0.5 μM GSK126
[2] = 72 h, 2 μM ACY-957, 0.5 μM DZNEP, 0.5 μM GSK126

Nc1ccc(-c2cccs2)cc1NC(=O)c1ccc2nc(N3CCNCC3)ccc2c1 [ACY-957, N-(2-amino-5-(thiophen-2-yl)phenyl)-2-(piperazin-1-yl)quinoline-6-carboxamide]
inhibition of Hdac1,2 activities compared to Hdac3 (IC50 values) (Hdac1,2): very selectively
cell death / sub-G1 population (Karpas-422 cells; 2 μM ACY-957, 50 nM doxorubicin or both, 48 h): sub-G1 population (i.e., dead cells) was observed
progression through the cell cycle (Karpas-422 cells; [1]): did not affect their progression through the cell cycle
cell cycle / sub-G1 (dead cells) (Karpas-422 cells; 48 h, 2 μM ACY-957, 0.5 μM DZNEP, 0.5 μM GSK126): modest accumulation of sub-G1 population
S-phase population, BrdU-PI FACS (Karpas-422 cells; 48 h and 72 h, accompanied by increased cell death): decrease in S-phase population
cell cycle / sub-G1 (dead cells) (Karpas-422 cells; [2]): larger increase in the number of sub-G1/dead cells; also recorded: large increase in the number of sub-G1 or dead Karpas-422 cells
progression through the cell cycle (SUDHL4 cells; [1]): did not affect their progression through the cell cycle
cell cycle / G1 arrest (SUDHL4 cells; 48 h, 2 μM ACY-957, 0.5 μM GSK126): accumulation of SUDHL4 cells in G1 phase (G1 arrest)
S-phase population, BrdU-PI FACS (SUDHL4 cells; 48 h and 72 h, accompanied by G1 arrest): decrease in S-phase population
cell cycle / G1 arrest and sub-G1 (SUDHL4 cells; [2]): greater number of cells arrested in G1 phase; also recorded: cell cycle arrest at G1 phase in SUDHL4 cells

From patent US11154551B2, “HDAC1,2 inhibitors and methods of using the same” (UNIVERSITY OF UTAH RESEARCH FOUNDATION, priority 2014, dated 2021)
